Assay [1] concerns circular muscle of human vas deferens. Briefly: Inhibition of contractions evoked by high K+ in the presence of Bay K 8644, circular muscle. The conditions noted are these: [K+]o 30 mM & 120 mM in the presence of Bay K 8644 (1 μM). The protocol: (§1) Human vas deferens specimens were obtained after elective vasectomies of healthy fertile men. College ethical approval and the consent of patients were obtained. The specimens were placed in ice-cold Krebs' medium, dissected-free of connective tissue/blood vessels and cut longitudinally into strips (longitudinal muscle preparations; 5-10 mm long & 1 mm wide) or transversely into rings (circular muscle preparations; 3 mm in length). […] Contractile responses were recorded via a Harvard-type force-displacement transducer. […]
(§2) Tissues were equilibrated for 180 min in Krebs' medium containing inhibitors of extraneuronal and neuronal reuptake of noradrenaline, oestradiol (1 μM) and desipramine (0.1 μM) respectively, inhibitors of catechol-O-methyltransferase and monoamine oxidase, tropolone (10 μM) and iproniazid (10 μM) respectively and the β-adrenoceptor blocker, propranolol (1 μM). […] The resulting contractions were measured (see below) and expressed as a percentage of corresponding initial responses to high [K^+]o evoked in the presence of L-type Ca^2+ agonists (i.e. before exposure to L-type Ca^2+ antagonists). […]

The subject of assay [2] is longitudinal muscle of human vas deferens. Put plainly: IC50 against contractions evoked by high K+ (120 mM) in the presence of FPL 64176, longitudinal muscle strips. The conditions noted are these: Homo sapiens; contractions evoked by K+ (120 mM) in the presence of FPL 64176 (1 μM); means ± S.E.M. The text has this:
(§3) Human vas deferens specimens were obtained after elective vasectomies of healthy fertile men. College ethical approval and the consent of patients were obtained. The specimens were placed in ice-cold Krebs' medium, dissected-free of connective tissue/blood vessels and cut longitudinally into strips (longitudinal muscle preparations; 5-10 mm long & 1 mm wide) or transversely into rings (circular muscle preparations; 3 mm in length). The longitudinal and circular muscle preparations were then set up for tension recording (resting tension 5-7 mN) in a Perspex chamber superfused at 2 ml per min with Krebs' medium (36° C.) composed of (mM): NaCl, 118.8; NaHCO3, 25; KCl, 4.7; CaCl2.2H2O, 2.5; KH2PO4, 1.2; MgSO4.7H2O, 1.2; glucose, 11.1; ascorbic acid 0.1 and continuously gassed with 95% O2 and 5% CO2. Contractile responses were recorded via a Harvard-type force-displacement transducer. The analog signals were digitised using CIO-Das 16/Jr data acquisition software (Amplicon Liveline, Brighton, UK) and re-plotted on a microcomputer.
(§4) Tissues were equilibrated for 180 min in Krebs' medium containing inhibitors of extraneuronal and neuronal reuptake of noradrenaline, oestradiol (1 μM) and desipramine (0.1 μM) respectively, inhibitors of catechol-O-methyltransferase and monoamine oxidase, tropolone (10 μM) and iproniazid (10 μM) respectively and the β-adrenoceptor blocker, propranolol (1 μM). At the end of the equilibration period, the tissues were stimulated with noradrenaline (100 μM). […] After a contact time of 30-40 min in this medium, different experimental protocols (described below) were adopted in order to • (a) Elucidate the contractile actions of L-type Ca^2+ agonists such as FPL 64176 or Bay K 8644. In these experiments, tissues were exposed to FPL 64176 (0.1-10 μM added cumulatively) or in separate experiments Bay K 8644 (0.1-10 μM added cumulatively). • (b) Investigate the effects of various diphenylalkylamines and conventional L-type Ca^2+ antagonists (methoxyverapamil or nifedipine) on contractions evoked by high concentrations of extracellular potassium (high [K^+]o) in the presence of L-type Ca^2+ agonists, FPL 64176 (1 μM) or Bay K 8644 (1 μM). In this protocol, tissues were stimulated with high [K^+]O (10, 30 and 120 mM at 10-15 min intervals) in normal Krebs' medium, then exposed to L-type Ca^2+ agonists for 20-30 min and subsequently stimulated with high [K^+]O (10, 30 and 120 mM) in the presence of the drugs. These provided the initial responses. Following this and in the continuous presence of the L-type Ca^2+ agonists, the tissues were exposed additionally to L-type Ca^2+ antagonists (conventional or diphenylalkylamines) or drug-free vehicle medium. After contact times of 25-50 min the tissues were stimulated, first with high [K^+]O (either 30 mM or 120 mM) in order to take account of the well-documented use-dependent action of the diphenylalkylamine Ca^2+ antagonists. Following recovery from the test contraction and after a further 30-40 min, the tissues were then stimulated with high [K^+]o (10, 30 and 120 mM). This protocol is illustrated in FIGS. 3 and 4. The resulting contractions were measured (see below) and expressed as a percentage of corresponding initial responses to high [K^+]o evoked in the presence of L-type Ca^2+ agonists (i.e. before exposure to L-type Ca^2+ antagonists). […] Subsequent analysis (see below) was between contractions of drug-treated tissues and time-matched controls • (c) Determine the inhibitory potencies (IC50 values) of various diphenylalkylamines and phenothiazines and conventional L-type Ca^2+ antagonists (nifedipine and methoxyverapamil) against contractions evoked in longitudinal and circular muscle of human vas deferens by high [K^+]o (120 mM) in the presence of FPL 64176. In these experiments, tissues were stimulated with high [K^+]o (120 mM); sequentially in normal Krebs' medium and after 25-30 min exposure to the L-type Ca^2+ agonist, FPL 64176, (1 μM, Initial response). […]

Assay [3] shares this test system. Put plainly: Inhibition of contractions evoked by high K+ in the presence of Bay K 8644, longitudinal muscle. The conditions noted are these: [K+]o 30 mM & 120 mM in the presence of Bay K 8644 (1 μM). The protocol:
as §1, §2

For assay [4], the system named is circular muscle of human vas deferens. Briefly: IC50 against contractions evoked by high K+ (120 mM) in the presence of FPL 64176, circular muscle rings. As to conditions: Homo sapiens; contractions evoked by K+ (120 mM) in the presence of FPL 64176 (1 μM); means ± S.E.M.
Text: as §3, §4

The test system is the same in assay [5]. Briefly: Inhibition at fixed concentration of contractions evoked by high K+ in the presence of FPL 64176, circular muscle. As to conditions: [K+]o 30 mM in the presence of FPL 64176 (1.0 μM); drug 10 μM; hydrochloride.
Text: as §3
Tissues were equilibrated for 180 min in Krebs' medium containing inhibitors of extraneuronal and neuronal reuptake of noradrenaline, oestradiol (1 μM) and desipramine (0.1 μM) respectively, inhibitors of catechol-O-methyltransferase and monoamine oxidase, tropolone (10 μM) and iproniazid (10 μM) respectively and the β-adrenoceptor blocker, propranolol (1 μM). At the end of the equilibration period, the tissues were stimulated with noradrenaline (100 μM). […] After a contact time of 30-40 min in this medium, different experimental protocols (described below) were adopted in order to • (a) Elucidate the contractile actions of L-type Ca^2+ agonists such as FPL 64176 or Bay K 8644. In these experiments, tissues were exposed to FPL 64176 (0.1-10 μM added cumulatively) or in separate experiments Bay K 8644 (0.1-10 μM added cumulatively). • (b) Investigate the effects of various diphenylalkylamines and conventional L-type Ca^2+ antagonists (methoxyverapamil or nifedipine) on contractions evoked by high concentrations of extracellular potassium (high [K^+]o) in the presence of L-type Ca^2+ agonists, FPL 64176 (1 μM) or Bay K 8644 (1 μM). In this protocol, tissues were stimulated with high [K^+]O (10, 30 and 120 mM at 10-15 min intervals) in normal Krebs' medium, then exposed to L-type Ca^2+ agonists for 20-30 min and subsequently stimulated with high [K^+]O (10, 30 and 120 mM) in the presence of the drugs. These provided the initial responses. Following this and in the continuous presence of the L-type Ca^2+ agonists, the tissues were exposed additionally to L-type Ca^2+ antagonists (conventional or diphenylalkylamines) or drug-free vehicle medium. After contact times of 25-50 min the tissues were stimulated, first with high [K^+]O (either 30 mM or 120 mM) in order to take account of the well-documented use-dependent action of the diphenylalkylamine Ca^2+ antagonists. Following recovery from the test contraction and after a further 30-40 min, the tissues were then stimulated with high [K^+]o (10, 30 and 120 mM). This protocol is illustrated in FIGS. 3 and 4. The resulting contractions were measured (see below) and expressed as a percentage of corresponding initial responses to high [K^+]o evoked in the presence of L-type Ca^2+ agonists (i.e. before exposure to L-type Ca^2+ antagonists). […]

Assay [6] has as its system sperm emission in patients. The conditions noted are these: clinical studies; cited from earlier work.

Molecules are shown by their SMILES. Where a name gives a salt, the structure may show the parent alone.

As for `COC(=O)C1=C(C)NC(C)=C(C(=O)OC)C1c1ccccc1[N+](=O)[O-]` [Nifedipine, nifedipine], the inhibition at 1 µM in assay [1] (Homo sapiens, drug 1 μM, read-out: inhibition of circular muscle contractions relative to time-matched controls) is 66 to 73%; in assay [3] (Homo sapiens, drug 1 μM, read-out: inhibition of longitudinal muscle contractions relative to time-matched controls), 66 to 73%. The figures for the IC50 in assay [2] and in assay [4] were 0.00216 ± 0.0008 µM and 0.00219 ± 0.0005 µM, respectively.

On to `CC(NCCC(c1ccccc1)c1ccccc1)c1ccccc1` (stereo not drawn) [Fendiline, fendiline hydrochloride], for which the “inhibition of circular muscle contractions relative to time-matched controls” value in assay [1] (drug 10 μM) is on record as 0-20%. Further, the IC50 is 3.8 ± 0.9 µM in assay [2] and 17.4 ± 5.8 µM in assay [4]. Also, the “inhibition of longitudinal muscle contractions relative to time-matched controls” value in assay [3] (drug 10 μM) is given as 73-80%. Further, the “inhibition of circular muscle contractions compared to time-matched controls” value in assay [5] is listed as 35%.

With `CN1CCN(CCCN2c3ccccc3Sc3ccc(C(F)(F)F)cc32)CC1` [Trifluoperazine, trifluoperazine dihydrochloride], the concentration for half-maximal inhibition (IC50) in assay [2] was found to be 20.7 ± 5.4 µM; in assay [4], 10.2 ± 3 µM. For the same compound, the “effect on sperm emission (contraceptive side effect)” value in assay [6] is listed as “lack the contraceptive side-effect”.

The values above are taken from US8927579B2, “Male contraceptive” (priority 2007, dated 2015).
